Earlier results on one molecule are cited in US20210308071A1, “Treatment method to abort and or reduce the severity of upper respiratory viral illness as well as to prevent upper respiratory viral illness in humans” (priority 2020, published 2021).

The conditions of this data set: for orally administered dose excreted as the glucuronic acid conjugate within 24 hours: humans.

Read-outs that look alike come from different tables or passages of the source.

For the molecule `CC1(C)C2CCC1(C)C(O)C2` (stereo not drawn) [Borneol], where the note is “10 hours after ingestion of 2000 mg”, the “administered dose detected as the glucuronic acid conjugate in human urine” value is reported as 81%. The “orally administered dose excreted as the glucuronic acid conjugate within 24 hours” value is on record as 81% (oral 1000 mg) and 94% (oral 2000 mg).
